Source: PubChem BioAssay AID2060886 (Molecular Pharmacology Branch, DTP, NCI, 2025)

Tested on: 653999-131-R-J2-PDC complex spheroids, growth inhibition
Test: Anticancer human tumor 653999-131-R-J2-PDC patient-derived lung adenocarcinoma cell line growth inhibition [RAS]
Settings: for IC50: curve of first compound; for viability, T/C: stronger effect = lower value
Procedure, shortened: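 Tumour cells grown as complex spheroids with HUVEC endothelial cells and mesenchymal stem cells, treated with RAS pathway inhibitor combinations. Each agent spans half-log steps from near clinical Cmax, or 10 microM where Cmax is unknown.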
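Further: spheroids exposed to the agents for seven days before the readout.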

C=CC(=O)N1CCN(c2nc(OCC3CCCN3C)nc3c(F)c(-c4nc(N)cc(C)c4C(F)(F)F)c(Cl)cc23)C(C)C1 (configuration not stated) + C#Cc1c(F)ccc2cc(O)cc(-c3ncc4c(N5CC6CCC(C5)N6)nc(OCC56CCCN5CC(F)C6)nc4c3F)c12
IC50 (second compound 0.0316 µM): > 1 µM | IC50 (second compound 0.1 µM): > 1 µM | IC50 (second compound 0.316 µM): > 1 µM | IC50 (second compound 1 µM): > 1 µM | IC50 (second compound 3.16 µM): < 0.00316 µM | IC50 (second compound 10 µM): < 0.00316 µM | viability, T/C (second compound 0.0316 µM, first compound 0.00316 µM): 117% | viability, T/C (second compound 0.0316 µM, first compound 0.01 µM): 91.3% | viability, T/C (second compound 0.0316 µM, first compound 0.0316 µM): 95.9% | viability, T/C (second compound 0.0316 µM, first compound 0.1 µM): 82.3% | viability, T/C (second compound 0.0316 µM, first compound 0.316 µM): 99.1% | viability, T/C (second compound 0.0316 µM, first compound 1 µM): 85.2% | viability, T/C (second compound 0.1 µM, first compound 0.00316 µM): 92.7% | viability, T/C (second compound 0.1 µM, first compound 0.01 µM): 84.1% | viability, T/C (second compound 0.1 µM, first compound 0.0316 µM): 73.9% | viability, T/C (second compound 0.1 µM, first compound 0.1 µM): 78.5% | viability, T/C (second compound 0.1 µM, first compound 0.316 µM): 83.3% | viability, T/C (second compound 0.1 µM, first compound 1 µM): 73.1% | viability, T/C (second compound 0.316 µM, first compound 0.00316 µM): 71.7% | viability, T/C (second compound 0.316 µM, first compound 0.01 µM): 62.5% | viability, T/C (second compound 0.316 µM, first compound 0.0316 µM): 65.6% | viability, T/C (second compound 0.316 µM, first compound 0.1 µM): 67.8% | viability, T/C (second compound 0.316 µM, first compound 0.316 µM): 70.2% | viability, T/C (second compound 0.316 µM, first compound 1 µM): 52.8% | viability, T/C (second compound 1 µM, first compound 0.00316 µM): 41.5% | viability, T/C (second compound 1 µM, first compound 0.01 µM): 63% | viability, T/C (second compound 1 µM, first compound 0.0316 µM): 54% | viability, T/C (second compound 1 µM, first compound 0.1 µM): 53.8% | viability, T/C (second compound 1 µM, first compound 0.316 µM): 55.4% | viability, T/C (second compound 1 µM, first compound 1 µM): 46.5% | viability, T/C (second compound 3.16 µM, first compound 0.00316 µM): 38% | viability, T/C (second compound 3.16 µM, first compound 0.01 µM): 55.2% | viability, T/C (second compound 3.16 µM, first compound 0.0316 µM): 39% | viability, T/C (second compound 3.16 µM, first compound 0.1 µM): 35% | viability, T/C (second compound 3.16 µM, first compound 0.316 µM): 43.8% | viability, T/C (second compound 3.16 µM, first compound 1 µM): 31.4% | viability, T/C (second compound 10 µM, first compound 0.00316 µM): 24.5% | viability, T/C (second compound 10 µM, first compound 0.01 µM): 26.7% | viability, T/C (second compound 10 µM, first compound 0.0316 µM): 20.8% | viability, T/C (second compound 10 µM, first compound 0.1 µM): 31.9% | viability, T/C (second compound 10 µM, first compound 0.316 µM): 27% | viability, T/C (second compound 10 µM, first compound 1 µM): 29.6%
